Data reported in PMC8213057, “Targeting ALK2: An Open Science Approach to Developing Therapeutics for the Treatment of Diffuse Intrinsic Pontine Glioma” (Journal of Medicinal Chemistry, 2020).

Legend:
[1] = target: T1, ALK4/ACVR1B (Homo sapiens, UniProt P36896); test: 375-member kinase panel; format: biochemical; details: Run 1, Run 2; for % enzyme activity: 1 μM; for remaining activity at 1 µM: read-out: % enzyme activity, 1 μM
T1 construct: purchased Reaction Biology Corporation
T1 sequence (P36896 24-505): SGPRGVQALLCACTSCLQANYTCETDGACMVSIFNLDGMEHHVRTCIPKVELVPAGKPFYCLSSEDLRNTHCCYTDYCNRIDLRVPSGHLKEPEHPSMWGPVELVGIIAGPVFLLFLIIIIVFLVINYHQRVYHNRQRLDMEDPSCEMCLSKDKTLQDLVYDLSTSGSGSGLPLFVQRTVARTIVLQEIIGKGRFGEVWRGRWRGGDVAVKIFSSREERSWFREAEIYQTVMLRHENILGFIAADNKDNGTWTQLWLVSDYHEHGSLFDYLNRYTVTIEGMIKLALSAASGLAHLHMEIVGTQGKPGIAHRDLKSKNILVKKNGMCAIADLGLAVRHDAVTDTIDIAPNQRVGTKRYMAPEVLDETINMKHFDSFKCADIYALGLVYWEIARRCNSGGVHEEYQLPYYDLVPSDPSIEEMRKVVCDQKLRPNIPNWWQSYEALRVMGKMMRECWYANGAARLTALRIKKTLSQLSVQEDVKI

[2] = target: CDK9/cyclin T1 (Homo sapiens, UniProt P50750); details: 1 μM; Run 1, Run 2
Sequence of CDK9/cyclin T1 (P50750 whole entry): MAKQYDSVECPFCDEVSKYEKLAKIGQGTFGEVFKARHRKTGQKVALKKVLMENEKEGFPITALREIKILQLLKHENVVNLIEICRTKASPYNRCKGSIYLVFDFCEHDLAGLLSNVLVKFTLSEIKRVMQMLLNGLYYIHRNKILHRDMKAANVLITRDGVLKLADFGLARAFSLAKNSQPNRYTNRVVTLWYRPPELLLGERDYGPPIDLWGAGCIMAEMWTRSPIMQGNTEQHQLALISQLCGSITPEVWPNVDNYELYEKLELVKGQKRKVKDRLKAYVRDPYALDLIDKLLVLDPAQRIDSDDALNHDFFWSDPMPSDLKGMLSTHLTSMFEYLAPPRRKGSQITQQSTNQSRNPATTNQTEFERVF
Sequence of CDK9/cyclin T1 (O60563 whole entry partner): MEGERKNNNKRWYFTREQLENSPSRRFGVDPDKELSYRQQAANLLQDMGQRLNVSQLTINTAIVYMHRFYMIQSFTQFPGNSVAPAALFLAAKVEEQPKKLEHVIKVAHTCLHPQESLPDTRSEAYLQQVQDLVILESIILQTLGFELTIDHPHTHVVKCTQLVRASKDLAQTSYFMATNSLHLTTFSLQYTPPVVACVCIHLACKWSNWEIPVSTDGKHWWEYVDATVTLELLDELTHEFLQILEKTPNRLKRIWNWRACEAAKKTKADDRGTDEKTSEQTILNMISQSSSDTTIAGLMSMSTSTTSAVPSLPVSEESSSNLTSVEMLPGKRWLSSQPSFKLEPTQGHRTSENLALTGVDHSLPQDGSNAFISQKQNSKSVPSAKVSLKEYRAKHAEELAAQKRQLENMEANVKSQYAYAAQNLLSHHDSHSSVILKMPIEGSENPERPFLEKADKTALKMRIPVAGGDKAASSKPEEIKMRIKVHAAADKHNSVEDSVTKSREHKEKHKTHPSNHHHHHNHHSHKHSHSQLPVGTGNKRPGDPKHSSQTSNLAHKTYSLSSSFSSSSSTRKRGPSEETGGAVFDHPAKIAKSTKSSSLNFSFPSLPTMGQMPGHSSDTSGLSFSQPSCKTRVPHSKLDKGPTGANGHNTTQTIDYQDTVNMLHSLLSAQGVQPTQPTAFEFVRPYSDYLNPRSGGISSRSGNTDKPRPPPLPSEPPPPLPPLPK

[3] = target: T2, CTK/MATK (Homo sapiens, UniProt P42679); details: 1 μM; Run 1, Run 2
T2 sequence (P42679 1-507): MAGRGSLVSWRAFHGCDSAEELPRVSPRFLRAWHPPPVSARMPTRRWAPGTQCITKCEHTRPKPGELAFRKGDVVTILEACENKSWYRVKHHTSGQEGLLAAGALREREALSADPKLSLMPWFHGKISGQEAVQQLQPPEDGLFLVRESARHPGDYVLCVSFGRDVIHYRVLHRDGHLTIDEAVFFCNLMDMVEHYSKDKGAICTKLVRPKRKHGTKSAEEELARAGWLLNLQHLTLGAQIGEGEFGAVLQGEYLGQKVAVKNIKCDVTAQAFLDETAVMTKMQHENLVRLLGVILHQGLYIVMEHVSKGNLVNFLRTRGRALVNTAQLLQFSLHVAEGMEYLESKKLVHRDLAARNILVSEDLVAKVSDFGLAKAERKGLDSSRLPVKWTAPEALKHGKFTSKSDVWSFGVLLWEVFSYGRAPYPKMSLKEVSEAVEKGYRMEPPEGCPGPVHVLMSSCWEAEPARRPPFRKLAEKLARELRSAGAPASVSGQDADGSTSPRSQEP

[4] = target: DYRK1/DYRK1A (Homo sapiens, UniProt Q13627); details: 1 μM; Run 1, Run 2
[5] = target: PKCa (Homo sapiens, UniProt P17252); details: 1 μM; Run 1, Run 2
[6] = target: T3, IKKe/IKBKE (Homo sapiens, UniProt Q14164); test: biochemical; details: read-out: % enzyme activity, 1 μM; Run 1, Run 2
T3 sequence (Q14164 1-716): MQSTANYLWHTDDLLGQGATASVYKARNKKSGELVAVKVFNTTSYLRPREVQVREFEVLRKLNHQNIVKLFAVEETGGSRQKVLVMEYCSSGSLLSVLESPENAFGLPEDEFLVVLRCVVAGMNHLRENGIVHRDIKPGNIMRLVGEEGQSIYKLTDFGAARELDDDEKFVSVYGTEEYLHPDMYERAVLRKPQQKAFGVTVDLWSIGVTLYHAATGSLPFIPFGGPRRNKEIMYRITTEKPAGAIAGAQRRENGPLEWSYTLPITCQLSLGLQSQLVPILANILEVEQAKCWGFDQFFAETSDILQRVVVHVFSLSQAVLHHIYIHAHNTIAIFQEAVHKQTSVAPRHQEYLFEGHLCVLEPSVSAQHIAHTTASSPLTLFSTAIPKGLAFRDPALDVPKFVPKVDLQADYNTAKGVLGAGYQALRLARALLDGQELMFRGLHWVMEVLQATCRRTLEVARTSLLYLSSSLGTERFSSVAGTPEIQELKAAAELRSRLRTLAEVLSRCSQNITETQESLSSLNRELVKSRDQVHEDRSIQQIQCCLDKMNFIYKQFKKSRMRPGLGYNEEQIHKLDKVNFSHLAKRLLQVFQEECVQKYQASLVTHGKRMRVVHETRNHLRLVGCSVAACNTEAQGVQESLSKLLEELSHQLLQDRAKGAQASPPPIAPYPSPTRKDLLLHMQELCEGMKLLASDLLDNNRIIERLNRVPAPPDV

[7] = target: T4, MAK (Homo sapiens, UniProt P20794); test: biochemical; details: read-out: % enzyme activity, 1 μM; Run 1, Run 2
T4 sequence (P20794 1-623): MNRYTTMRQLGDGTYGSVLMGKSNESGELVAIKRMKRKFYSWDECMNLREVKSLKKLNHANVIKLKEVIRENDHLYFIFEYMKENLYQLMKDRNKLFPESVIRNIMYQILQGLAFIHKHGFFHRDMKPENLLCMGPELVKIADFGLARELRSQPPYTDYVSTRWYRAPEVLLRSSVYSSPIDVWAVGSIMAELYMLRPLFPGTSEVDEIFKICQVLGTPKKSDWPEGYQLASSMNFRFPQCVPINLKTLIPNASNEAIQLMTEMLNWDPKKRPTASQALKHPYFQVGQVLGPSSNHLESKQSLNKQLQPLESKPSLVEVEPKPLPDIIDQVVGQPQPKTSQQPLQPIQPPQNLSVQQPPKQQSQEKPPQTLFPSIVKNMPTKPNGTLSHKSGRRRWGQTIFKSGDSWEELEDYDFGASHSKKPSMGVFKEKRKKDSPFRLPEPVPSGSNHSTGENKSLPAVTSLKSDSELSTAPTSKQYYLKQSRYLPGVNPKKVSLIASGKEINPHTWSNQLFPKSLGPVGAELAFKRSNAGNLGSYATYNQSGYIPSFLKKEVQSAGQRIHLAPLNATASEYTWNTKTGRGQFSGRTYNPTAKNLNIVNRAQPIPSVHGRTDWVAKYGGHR

[8] = target: PLK2 (Homo sapiens, UniProt Q9NYY3); test: biochemical; details: read-out: % enzyme activity, 1 μM; Run 1, Run 2
Sequence of PLK2 (Q9NYY3 whole entry): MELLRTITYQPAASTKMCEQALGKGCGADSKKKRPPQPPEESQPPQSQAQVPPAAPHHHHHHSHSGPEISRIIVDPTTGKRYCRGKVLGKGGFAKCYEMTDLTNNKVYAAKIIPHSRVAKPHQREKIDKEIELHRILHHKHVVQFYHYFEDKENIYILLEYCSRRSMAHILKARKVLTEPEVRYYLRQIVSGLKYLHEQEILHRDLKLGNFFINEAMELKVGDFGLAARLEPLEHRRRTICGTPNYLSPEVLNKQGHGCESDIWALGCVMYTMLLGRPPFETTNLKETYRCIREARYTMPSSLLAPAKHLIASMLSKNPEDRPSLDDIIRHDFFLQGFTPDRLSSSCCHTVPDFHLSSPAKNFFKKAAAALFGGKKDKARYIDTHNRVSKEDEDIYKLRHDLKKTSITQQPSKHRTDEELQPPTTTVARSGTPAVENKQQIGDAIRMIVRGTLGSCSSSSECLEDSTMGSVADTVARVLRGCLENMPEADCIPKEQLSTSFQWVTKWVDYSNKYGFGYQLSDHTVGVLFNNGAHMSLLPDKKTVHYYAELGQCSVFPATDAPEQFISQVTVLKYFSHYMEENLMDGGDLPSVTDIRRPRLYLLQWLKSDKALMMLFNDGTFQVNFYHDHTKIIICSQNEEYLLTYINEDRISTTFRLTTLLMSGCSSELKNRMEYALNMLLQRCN

[9] = target: WEE1 (Homo sapiens, UniProt P30291); test: biochemical; details: read-out: % enzyme activity, 1 μM; Run 1, Run 2
Sequence of WEE1 (P30291 whole entry, species assumed): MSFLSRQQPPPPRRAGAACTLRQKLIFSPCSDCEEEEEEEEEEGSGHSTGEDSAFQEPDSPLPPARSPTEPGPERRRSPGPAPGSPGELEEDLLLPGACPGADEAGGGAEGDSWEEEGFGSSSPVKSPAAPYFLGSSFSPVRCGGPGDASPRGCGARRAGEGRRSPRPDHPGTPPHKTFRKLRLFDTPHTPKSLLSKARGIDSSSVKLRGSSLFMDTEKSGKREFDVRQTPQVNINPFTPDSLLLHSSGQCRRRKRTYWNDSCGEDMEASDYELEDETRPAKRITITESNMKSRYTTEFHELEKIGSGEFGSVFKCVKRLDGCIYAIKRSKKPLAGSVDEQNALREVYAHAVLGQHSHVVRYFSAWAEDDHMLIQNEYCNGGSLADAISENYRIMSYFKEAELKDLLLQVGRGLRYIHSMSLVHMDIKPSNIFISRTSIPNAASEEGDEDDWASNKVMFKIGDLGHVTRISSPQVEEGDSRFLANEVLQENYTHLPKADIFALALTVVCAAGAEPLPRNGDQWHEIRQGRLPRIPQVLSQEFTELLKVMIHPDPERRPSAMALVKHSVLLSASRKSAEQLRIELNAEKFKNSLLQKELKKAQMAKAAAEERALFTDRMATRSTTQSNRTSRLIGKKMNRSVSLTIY

SMILES | % enzyme activity [1] | remaining activity at 1 µM [1] | % enzyme activity [2] | % enzyme activity [3] | % enzyme activity [4] | % enzyme activity [5] | remaining activity at 1 µM [6] | remaining activity at 1 µM [7] | remaining activity at 1 µM [8] | remaining activity at 1 µM [9]
COc1cc(-c2cncc(-c3ccc(N4CCN(C)CC4)cc3)c2C)cc(F)c1C(N)=O [Compound 26a, 2-Fluoro-6-methoxy-4-(4-methyl-5-(4-(4-methylpiperazin-1-yl)phenyl)pyridin-3-yl)benzamide] | 68.79% | 68.8% | 90.82% | 94.85% | 43.07% | 89.62% | 91.1% | 99.2% | 98.8% | 105%
COc1cc(-c2cncc(-c3ccc(N4C[C@@H](C)N(C)[C@@H](C)C4)cc3)c2C)cc(F)c1C(N)=O [Compound 26c, 2-Fluoro-6-methoxy-4-(4-methyl-5-(4-((3R,5S)-3,4,5-trimethylpiperazin-1-yl)phenyl)pyridin-3-yl)benzamide] | 81.71% | 82.4% | 96.85% | 98.62% | 60.05% | 89.76% | 96.7% | 119% | 103% | 105%
